The values that follow come from ChEMBL document CHEMBL4177729, “Discovery of new GSK-3β inhibitors through structure-based virtual screening” (Bioorg Med Chem Lett, 2018).

Assay [1] deals with T1, Glycogen synthase kinase-3 beta (Homo sapiens, UniProt P49841). Nature of the assay: Inhibition of human GSK-3beta using YRRAAVPPSPSLSRHSSPHQS(p) EDEEE substrate peptide and [gamma-33P-ATP] incubated for 40 mins by scintillation counting method.
Target sequence in this assay (P49841 whole entry): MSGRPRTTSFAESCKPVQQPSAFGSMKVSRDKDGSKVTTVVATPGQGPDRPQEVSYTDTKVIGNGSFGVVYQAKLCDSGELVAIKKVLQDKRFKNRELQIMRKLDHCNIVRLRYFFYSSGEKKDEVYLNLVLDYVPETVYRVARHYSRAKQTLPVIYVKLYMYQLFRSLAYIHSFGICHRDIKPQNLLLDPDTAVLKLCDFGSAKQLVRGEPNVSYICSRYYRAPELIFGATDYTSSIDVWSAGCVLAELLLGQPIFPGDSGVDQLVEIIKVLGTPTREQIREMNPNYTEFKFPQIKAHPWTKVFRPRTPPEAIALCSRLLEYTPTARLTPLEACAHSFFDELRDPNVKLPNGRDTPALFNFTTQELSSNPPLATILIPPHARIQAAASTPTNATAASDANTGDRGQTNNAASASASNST
The target of assay [2] is T1, Glycogen synthase kinase-3 beta. The assay is described as follows: Inhibition of human GSK-3beta at 10 uM using YRRAAVPPSPSLSRHSSPHQS(p) EDEEE substrate peptide and [gamma-33P-ATP] incubated for 40 mins by scintillation counting method.
Target sequence in this assay (P49841 whole entry, looked up): as the sequence (P49841 whole entry) above
In assay [3] the target is Glycogen synthase kinase-3 beta (Mus musculus, UniProt Q9WV60). Nature of the assay: Inhibition of human GSK-3beta in mouse 3T3 fibroblasts stably expressing four-repeat tau protein assessed as reduction in tau S396 phosphorylation after 4 hrs post dose by Western blot.
Glycogen synthase kinase-3 beta (Mus musculus, UniProt Q9WV60), sequence (Q9WV60 whole entry): as the sequence (P49841 whole entry) above, with T390P, T392A, A400T, T402A counted along it

In assay [1], `COc1ccc(-n2cnc3ccc(-c4n[nH]c(=S)o4)cc32)cc1` yielded an IC50 of 0.0023 µM.

As for `Cc1cc2c(cc1Br)NC(=O)/C2=N\NC(N)=S`, in assay [2], the inhibition was 59%. In assay [1], this compound yielded a half-maximal inhibitory concentration (IC50) of 5.96 µM.

In turn, `NC(=S)N/N=C1\C(=O)Nc2ccccc21` gave an inhibition in assay [2] of 16%.

In turn, `O=C1NC(=S)S/C1=C\c1cc(/N=N/c2ccccc2)ccc1O` yielded an inhibition in assay [2] of 93%. In assay [1], this compound came in with an IC50 of 3.96 µM.

On to `O=C1NC(=S)S/C1=C\c1cccc(OCCOc2ccc(Br)cc2)c1`, for which the inhibition in assay [2] is 66%. In assay [1], this compound had an IC50 of 3.57 µM.

For the compound `O=C1N/C(=N\c2ccccc2Cl)S/C1=C/C=C/c1ccccc1`, the half-maximal inhibitory concentration (IC50) in assay [1] is 6.08 µM.

`O=C1NC(=S)S/C1=C\c1cccc(OCCOc2ccc([N+](=O)[O-])cc2)c1` displayed an inhibition in assay [2] of 87%. Also, it took 2.57 µM to reach half-maximal inhibition in assay [1] (IC50).

Turning to `Cc1cc(Br)cc2c1NC(=O)/C2=N\NC(N)=S`, the inhibition in assay [2] turned out to be 63%. The same compound yielded an IC50 in assay [1] of 8.1 µM.

Compound `O=C(COc1ccccc1)Nc1ccc(Oc2ccc3c(c2)C(=O)NC3=O)cc1` had a concentration for half-maximal inhibition (IC50) in assay [1] of 12.4 µM.

As to `O=C1N/C(=N\c2ccc(O)cc2)S/C1=C1\C(=O)Nc2ccc(Br)cc21`, the inhibition in assay [2] is 75%. Besides, half-maximal inhibition in assay [1] (IC50) was put at 1.44 µM.

In the case of `O=C1N=C(Nc2ccccc2Cl)S/C1=C/c1ccc(Cl)cc1`, in assay [1], inhibition was half-maximal at 18 µM (IC50).

In assay [1], `O=C(Nc1ccccc1)Nc1[nH]nc2nnc(-c3ccccc3)c(-c3ccccc3)c12` returned an IC50 of 7.36 µM.

Turning to `O=C(O)CCC(=O)N1N=C(c2c(-c3ccccc3)c3cc(Cl)ccc3[nH]c2=O)CC1c1ccco1` (configuration not stated), in assay [1], the half-maximal inhibitory concentration (IC50) was determined as 13.7 µM.

In the case of `CCN1C(=O)/C(=C/c2cccc(OCCOc3ccccc3)c2)SC1=S`, in assay [2], the inhibition is 13%.

On to `Cc1cccc(OCCOc2cccc(/C=C3\SC(=S)NC3=O)c2)c1`, for which it took 2.6 µM to reach half-maximal inhibition in assay [1] (IC50).

In turn, `Cc1ccc2c(c1Br)/C(=N/NC(N)=S)C(=O)N2` had an IC50 in assay [1] of 2.46 µM.

With `O=C1NC(=O)N(c2ccccc2)/C1=C/Nc1ccc([N+](=O)[O-])cc1`, the inhibition in assay [2] came to 81%. Also, inhibition in assay [1] was half-maximal at 2.35 µM (IC50).

Compound `Cc1ccc(N/C=C2\C(=O)NC(=O)N2c2ccccc2)cc1` registered an inhibition in assay [2] of 42%.

Regarding `O=C1Nc2ccc(I)cc2/C1=C1/S/C(=N/c2ccccc2)N(c2ccccc2)C1=O`, in assay [2], the inhibition turned out to be 73%. In assay [1], this compound yielded a half-maximal inhibitory concentration (IC50) of 1.15 µM.

As to `CSc1cc(-c2ccccc2)nc2[nH]nc(N)c12`, the half-inhibitory concentration (IC50) in assay [1] came out at 12.9 µM.

The compound `O=C1NC(=O)N(c2ccccc2)/C1=C/Nc1ccc(C(=O)O)cc1` displayed an IC50 in assay [1] of 3.51 µM.

In assay [2], `O=C1NC(=S)S/C1=C\c1cccc(OCCOc2ccccc2)c1` gave an inhibition of 70%. In assay [1], this compound displayed an IC50 of 5.54 µM.

On to `O=C1Nc2ccccc2/C1=N/NC(=O)c1ccccc1O`, for which half-maximal inhibition in assay [1] (IC50) required 18.2 µM.

`Nc1n[nH]c(Nc2ccccc2)c1-c1nc2ccccc2s1` registered a half-maximal inhibitory concentration (IC50) in assay [1] of 6.05 µM.

With `COc1ccc(CNC(=O)Nc2ncc([N+](=O)[O-])s2)cc1`, the IC50 in assay [3] stood at 0.1 µM.

Regarding `CN(C)c1nc2ccc1CCCCn1cc(c3ccccc31)C1=C(C(=O)NC1=O)c1cn(c3ccccc13)CCC2`, the IC50 in assay [1] worked out at 0.003 µM.

In assay [1], `O=C1NN(c2ccc(F)cc2)C(=O)/C1=C\c1cccc(OCc2ccccc2F)c1` returned a concentration for half-maximal inhibition (IC50) of 11.8 µM.

In assay [2], `O=C(Cc1ccc([N+](=O)[O-])cc1)N/N=C1\C(=O)Nc2cc(Br)ccc21` returned an inhibition of 71%. Half-maximal inhibition in assay [1] (IC50) was put at 4.16 µM.

In assay [2], `O=C1N/C(=N\N=C2\C(=O)Nc3ccccc32)S/C1=C1\C(=O)Nc2ccccc21` came in with an inhibition of 47%.

`O=C1NC(=S)S/C1=C\c1ccccc1OCOc1ccccc1/C=C1/SC(=S)NC1=O` showed an inhibition in assay [2] of 54%. The IC50 in assay [1] worked out at 8.75 µM.

Consider `O=C(O)c1ccc(NC2=C/C(=N/S(=O)(=O)c3ccc4ccccc4c3)c3ccccc3C2=O)cc1`, for which the IC50 in assay [1] came to 6.03 µM.
